Source: ChEMBL document CHEMBL5360555, “Structure-based discovery of novel α-aminoketone derivatives as dual p53-MDM2/MDMX inhibitors for the treatment of cancer” (Eur J Med Chem, 2023)
Calls of active or inactive are those of the source. The rule behind the calls is not given here.

Tests used:
SJSA-1 = assay: Antiproliferative activity against human SJSA-1 cells overexpressing MDM2 assessed as cell growth inhibition incubated for 72 hrs by CCK-8 assay; type: functional, cell-based; conditions: SJSA-1, 72 h
Protein Mdm4 = target: T1, Protein Mdm4 (Homo sapiens, UniProt O15151); assay: Binding affinity to MDMX (1 to 118 residues) (unknown origin) assessed as inhibition constant incubated for 1 hr measured by fluorescence polarization assay
T1 sequence (O15151 whole entry): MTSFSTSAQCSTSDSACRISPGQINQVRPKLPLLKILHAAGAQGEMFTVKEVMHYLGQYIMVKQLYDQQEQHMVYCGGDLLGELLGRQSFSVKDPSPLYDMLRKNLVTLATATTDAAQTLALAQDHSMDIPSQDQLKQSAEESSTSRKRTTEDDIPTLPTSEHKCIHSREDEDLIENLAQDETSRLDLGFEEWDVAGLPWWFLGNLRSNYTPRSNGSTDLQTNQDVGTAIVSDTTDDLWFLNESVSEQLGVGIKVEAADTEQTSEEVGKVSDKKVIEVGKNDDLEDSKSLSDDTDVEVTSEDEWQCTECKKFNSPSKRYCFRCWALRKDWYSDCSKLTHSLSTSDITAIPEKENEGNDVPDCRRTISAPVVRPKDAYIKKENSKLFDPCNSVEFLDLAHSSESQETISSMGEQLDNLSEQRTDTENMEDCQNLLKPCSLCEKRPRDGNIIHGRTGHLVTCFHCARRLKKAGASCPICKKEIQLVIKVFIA

HCT-116 [1] = assay: Inhibition of cell migration in human HCT-116 cells measured using transwell chamber by crystal violet staining based microscopic analysis; type: functional; conditions: dose 0.2-0.6 µM
SH-SY5Y [2] = assay: Antiproliferative activity against human SH-SY5Y cells overexpressing MDMX assessed as cell growth inhibition incubated for 72 hrs by CCK-8 assay; type: functional, cell-based
[3] = Cytotoxicity against human BEAS-2B cells incubated for 72 hrs by CCK-8 assay; type: toxicity, cell-based
SH-SY5Y [4] = assay: Inhibition of cell invasion in human SH-SY5Y cells measured using transwell chamber by crystal violet staining based microscopic analysis; type: functional; conditions: dose 0.2-0.6 µM
[5] = Antiproliferative activity against human HCT116-p53-null cells overexpressing MDMX assessed as cell growth inhibition incubated for 72 hrs by CCK-8 assay; type: functional, cell-based
[6] = Cytotoxicity against human LO2 cells incubated for 72 hrs by CCK-8 assay; type: toxicity, cell-based, L02
HCT-116 [7] = assay: Antiproliferative activity against human HCT-116 cells overexpressing MDM2 assessed as cell growth inhibition incubated for 72 hrs by CCK-8 assay; type: functional, cell-based; conditions: HCT-116, 72 h
SH-SY5Y [8] = assay: Inhibition of colony formation in human SH-SY5Y cells incubated at 0.6 uM for 8 to 15 days measured by crystal violet staining based microscopic analysis; type: functional, cell-based; conditions: time 8-15 day
HCT-116 [9] = assay: Inhibition of cell invasion in human HCT-116 cells measured using transwell chamber by crystal violet staining based microscopic analysis; type: functional; conditions: dose 0.2-0.6 µM
SH-SY5Y [10] = assay: Inhibition of cell migration in human SH-SY5Y cells measured using transwell chamber by crystal violet staining based microscopic analysis; type: functional; conditions: dose 0.2-0.6 µM
[11] = target: E3 ubiquitin-protein ligase Mdm2 (Homo sapiens, UniProt Q00987); assay: Binding affinity to MDM2 (1 to 118 residues) (unknown origin) assessed as inhibition constant incubated for 1 hr measured by fluorescence polarization assay
Sequence of E3 ubiquitin-protein ligase Mdm2 (Q00987 whole entry, the tested form may be a part): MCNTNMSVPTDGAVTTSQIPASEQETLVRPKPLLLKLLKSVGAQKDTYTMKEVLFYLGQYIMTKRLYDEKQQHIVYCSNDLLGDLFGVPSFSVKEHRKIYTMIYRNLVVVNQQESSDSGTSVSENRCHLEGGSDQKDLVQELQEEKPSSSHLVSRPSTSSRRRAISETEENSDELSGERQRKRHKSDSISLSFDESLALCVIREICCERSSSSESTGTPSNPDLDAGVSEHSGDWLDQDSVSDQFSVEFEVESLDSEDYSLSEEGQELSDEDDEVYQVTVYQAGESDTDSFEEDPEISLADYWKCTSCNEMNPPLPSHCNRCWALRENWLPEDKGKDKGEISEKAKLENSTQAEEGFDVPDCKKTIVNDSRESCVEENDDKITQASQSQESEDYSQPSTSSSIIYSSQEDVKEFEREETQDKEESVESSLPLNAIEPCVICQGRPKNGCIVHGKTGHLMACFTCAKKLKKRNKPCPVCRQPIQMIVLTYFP

HCT-116 [12] = assay: Inhibition of colony formation in human HCT-116 cells incubated at 0.6 uM for 8 to 15 days measured by crystal violet staining based microscopic analysis; type: functional, cell-based; conditions: time 8-15 day
SH-SY5Y [13] = assay: Reactivation of p53 pathway in human SH-SY5Y cells assessed as increase in cleaved caspase 3level treated at 0.6 to 2.4 uM for 48 hrs measured by Western blotting analysis; type: cell-based; conditions: dose 0.6-2.4 µM
SH-SY5Y [14] = assay: Induction of cell cycle arrest in human SH-SY5Y cells assessed as increase in accumulation of cells at G1 phase incubated at 0.6 to 2.4 uM for 48 hrs by measured by flow cytometric analysis; type: functional, cell-based; conditions: dose 0.6-2.4 µM
[15] = target: Cellular tumor antigen p53 (Homo sapiens) (UniProt P04637); assay: Reactivation of p53 pathway in human HCT-116 cells assessed as increase in p21 level treated at 0.6 to 2.4 uM for 48 hrs measured by Western blotting analysis; type: cell-based; conditions: dose 0.6-2.4 µM
Sequence of Cellular tumor antigen p53 (Homo sapiens) (P04637 whole entry, looked up): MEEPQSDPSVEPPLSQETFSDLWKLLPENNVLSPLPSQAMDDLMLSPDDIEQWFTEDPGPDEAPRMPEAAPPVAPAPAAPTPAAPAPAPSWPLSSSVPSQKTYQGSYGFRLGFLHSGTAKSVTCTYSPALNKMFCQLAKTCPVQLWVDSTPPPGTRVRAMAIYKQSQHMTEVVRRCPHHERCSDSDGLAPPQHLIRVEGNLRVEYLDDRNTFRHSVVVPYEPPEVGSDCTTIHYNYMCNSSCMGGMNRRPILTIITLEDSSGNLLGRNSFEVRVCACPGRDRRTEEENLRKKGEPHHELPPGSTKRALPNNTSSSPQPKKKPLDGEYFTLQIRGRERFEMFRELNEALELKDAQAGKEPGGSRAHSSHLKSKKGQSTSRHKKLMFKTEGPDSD

SH-SY5Y [16] = assay: Induction of apoptosis in human SH-SY5Y cells assessed as apoptotic cells at 2.4 uM for 48 hrs measured by Annexin V-PI based flow cytometric analysis relative to control; type: functional
SH-SY5Y [17] = assay: Induction of apoptosis in human SH-SY5Y cells assessed as apoptotic cells at 0.6 uM for 48 hrs measured by Annexin V-PI based flow cytometric analysis relative to control; type: functional
SH-SY5Y [18] = assay: Reactivation of p53 pathway in human SH-SY5Y cells assessed as increase in p21 level treated at 0.6 to 2.4 uM for 48 hrs measured by Western blotting analysis; type: cell-based; conditions: dose 0.6-2.4 µM
[19] = target: Cellular tumor antigen p53 (Homo sapiens) (UniProt P04637); assay: Reactivation of p53 pathway in human HCT-116 cells assessed as increase in MDMX level treated at 0.6 to 2.4 uM for 48 hrs measured by Western blotting analysis; type: cell-based; conditions: dose 0.6-2.4 µM
HCT-116 [20] = assay: Induction of cell cycle arrest in human HCT-116 cells assessed as increase in accumulation of cells at G1 phase incubated at 0.6 to 2.4 uM for 48 hrs by measured by flow cytometric analysis; type: functional, cell-based; conditions: dose 0.6-2.4 µM
SH-SY5Y [21] = assay: Reactivation of p53 pathway in human SH-SY5Y cells assessed as increase in p53 level treated at 0.6 to 2.4 uM for 48 hrs measured by Western blotting analysis; type: cell-based; conditions: dose 0.6-2.4 µM
SH-SY5Y [22] = assay: Reactivation of p53 pathway in human SH-SY5Y cells assessed as increase in MDMX level treated at 0.6 to 2.4 uM for 48 hrs measured by Western blotting analysis; type: cell-based; conditions: dose 0.6-2.4 µM
HCT-116 [23] = assay: Reactivation of p53 pathway in human HCT-116 cells assessed as increase in p53 level treated at 0.6 to 2.4 uM for 48 hrs measured by Western blotting analysis; type: cell-based; conditions: dose 0.6-2.4 µM
HCT-116 [24] = assay: Induction of apoptosis in human HCT-116 cells assessed as apoptotic cells at 2.4 uM for 48 hrs measured by Annexin V-PI based flow cytometric analysis relative to control; type: functional
HCT-116 [25] = assay: Induction of apoptosis in human HCT-116 cells assessed as apoptotic cells at 0.6 uM for 48 hrs measured by Annexin V-PI based flow cytometric analysis relative to control; type: functional
SH-SY5Y [26] = assay: Induction of cell cycle arrest in human SH-SY5Y cells assessed as decrease in accumulation of cells at G2 phase incubated at 0.6 to 2.4 uM for 48 hrs by measured by flow cytometric analysis; type: functional, cell-based; conditions: dose 0.6-2.4 µM
SH-SY5Y [27] = assay: Reactivation of p53 pathway in human SH-SY5Y cells assessed as increase in MDM2 level treated at 0.6 to 2.4 uM for 48 hrs measured by Western blotting analysis; type: cell-based; conditions: dose 0.6-2.4 µM
[28] = target: Cellular tumor antigen p53 (Homo sapiens) (UniProt P04637); assay: Reactivation of p53 pathway in human HCT-116 cells assessed as increase in MDM2 level treated at 0.6 to 2.4 uM for 48 hrs measured by Western blotting analysis; type: cell-based; conditions: dose 0.6-2.4 µM
HCT-116 [29] = assay: Reactivation of p53 pathway in human HCT-116 cells assessed as increase in cleaved caspase 3 level treated at 0.6 to 2.4 uM for 48 hrs measured by Western blotting analysis; type: cell-based; conditions: dose 0.6-2.4 µM
HCT-116 [30] = assay: Induction of cell cycle arrest in human HCT-116 cells assessed as decrease in accumulation of cells at G2 phase incubated at 0.6 to 2.4 uM for 48 hrs by measured by flow cytometric analysis; type: functional, cell-based; conditions: dose 0.6-2.4 µM
[31] = target: Tumour suppressor p53/oncoprotein Mdm2 (Homo sapiens) (UniProt P04637+Q00987); assay: Inhibition of protein binding in p53/MDM2 in human HCT116 cells assessed as disruption of protein-protein interaction measured at 1.2 uM for 48 hrs by co-immunoprecipitation based Western blotting analysis; type: cell-based; conditions: HCT-116
Sequence of Tumour suppressor p53/oncoprotein Mdm2 (Homo sapiens) (P04637 whole entry, looked up): as above
Sequence of Tumour suppressor p53/oncoprotein Mdm2 (Homo sapiens) (Q00987 whole entry, looked up): as the sequence (Q00987 whole entry, the tested form may be a part) above

SH-SY5Y [32] = assay: Antiproliferative activity against human SH-SY5Y cells overexpressing MDMX assessed as cell growth inhibition incubated at 10 uM for 72 hrs by CCK-8 assay relative to control; type: functional
HCT-116 [33] = assay: Antiproliferative activity against human HCT-116 cells overexpressing MDM2 assessed as cell growth inhibition incubated at 10 uM for 72 hrs by CCK-8 assay relative to control; type: functional

Row | Compound | IC50 (SJSA-1) | Ki (Protein Mdm4) | inhibition (HCT-116 [1]) | IC50 (SH-SY5Y [2]) | IC50 at 72 h [3] | inhibition (SH-SY5Y [4]) | IC50 [5] | IC50 at 72 h [6] | IC50 (HCT-116 [7]) | inhibition (SH-SY5Y [8]) | inhibition (HCT-116 [9]) | inhibition (SH-SY5Y [10]) | Ki [11] | inhibition (HCT-116 [12]) | also measured
1 | CN(C)C1CCN(C(=O)CCC(=O)N(c2ccc(Cl)cc2)C(C(=O)c2ccc(Cl)cc2)c2ccc(F)cc2Cl)CC1 (centres undefined) | 0.64 µM | 3.46 µM | Dose-Dependent Effect | 0.69 µM | 16.3 µM | Dose-Dependent Effect | 13.6 µM | 12.7 µM | 0.72 µM | Active | Dose-Dependent Effect | Dose-Dependent Effect | 0.28 µM | Active | 
2 | O=C(c1ccc(Cl)cc1)C(c1ccc(F)cc1Cl)N(C(=O)CCC(=O)N1CCNCC1)c1ccc(Cl)cc1 (centres undefined) | 0.58 µM | 2.45 µM | Dose-Dependent Effect | 0.54 µM | 18 µM | Dose-Dependent Effect | 14 µM | 15.9 µM | 0.68 µM | Active | Dose-Dependent Effect | Dose-Dependent Effect | 0.23 µM | Active | Activity (SH-SY5Y [13]): Active; Activity (SH-SY5Y [14]): Active; Activity [15]: Active; Activity (SH-SY5Y [16]): 40.8%; Activity (SH-SY5Y [17]): 15.69%; Activity (SH-SY5Y [18]): Active; Activity [19]: Active; Activity (HCT-116 [20]): Active; Activity (SH-SY5Y [21]): Active; Activity (SH-SY5Y [22]): Active; Activity (HCT-116 [23]): Active; Activity (HCT-116 [24]): 37.6%; Activity (HCT-116 [25]): 13.63%; Activity (SH-SY5Y [26]): Active; Activity (SH-SY5Y [27]): Active; Activity [28]: Active; Activity (HCT-116 [29]): Active; Activity (HCT-116 [30]): Active; inhibition [31]: Active
3 | COc1ccc(C2=N[C@H](c3ccc(Cl)cc3)[C@H](c3ccc(Cl)cc3)N2C(=O)N2CCNC(=O)C2)c(OC(C)C)c1 |  |  |  |  |  |  | 29.5 µM |  | 11.3 µM | Active |  |  |  | Active | inhibition at 10 µM (SH-SY5Y [32]): 46.5%; inhibition at 10 µM (HCT-116 [33]): 49.2%
4 | CC(C)(C)OC(=O)N1CCN(C(=O)CCC(=O)N(c2ccc(Cl)cc2)C(C(=O)c2ccc(Cl)cc2)c2ccc(F)cc2Cl)CC1 (centres undefined) | 9.47 µM | 36.8 µM |  | 11.8 µM |  |  | 17.4 µM |  | 9.98 µM |  |  |  | 0.73 µM |  | 
